This is an account of results in ChEMBL document CHEMBL3612011, “Synthesis of new opioid derivatives with a propellane skeleton and their pharmacologies: Part 5, novel pentacyclic propellane derivatives with a 6-amide side chain” (Bioorg Med Chem, 2015).

Active and inactive are the calls of the source. The calls are words filed in the database; no cut-off is given here.

One data set deals with Mu-type opioid receptor (Cavia porcellus, UniProt P97266). Briefly: Displacement of [3H]DAMGO from MOR in guinea pig cerebellum membranes. It counts as cell membranes, Membrane.
Data set [1] addresses Delta-type opioid receptor (Mus musculus, UniProt P32300). Put plainly: Displacement of [3H]DPDPE from DOR in mouse whole brain membranes without cerebellum. The data set is classed as cell membranes, Membrane. Background: In a radioligand displacement assay an active substance lowers the binding of a labelled ligand.
In data set [2] the target is Kappa-type opioid receptor (Mus musculus, UniProt P33534). Put plainly: Displacement of [3H]U69,593 from KOR in mouse whole brain membranes without cerebellum. It counts as cell membranes, Membrane.
Data set [3] can be described thus: Selectivity index, ratio of Ki for MOR in guinea pig cerebellum membranes to Ki for KOR in mouse whole brain membranes without cerebellum. It counts as cell membranes.
The species named for data set [4] is Mus musculus. Briefly: Selectivity index, ratio of Ki for DOR in mouse whole brain membranes without cerebellum to Ki for KOR in mouse whole brain membranes without cerebellum. The data set is classed as cell membranes.
Data set [5] concerns Mus musculus. Briefly: Antinociceptive activity in ICR mouse assessed as reduction in acetic acid-induced abdominal writhing dosed subcutaneously 15 mins before acetic acid challenge. The data set is classed as functional. To be noted: Abdomen; for ED50: sc. For orientation: In writhing tests, fewer writhes than in controls are read as antinociception.
For data set [6], the species on record is Mus musculus. Briefly: Induction of sedation in ICR mouse by spontaneous locomotor activity test. It counts as organism-based. The following applies: in vivo.
Data set [7] has as its target T1, Kappa-type opioid receptor (Homo sapiens, UniProt P41145). Put plainly: Agonist activity at human KOR expressed in CHO cell membranes by [35S]GTPgammaS binding assay. It counts as functional. Background: GTPγS resists hydrolysis and so accumulates on activated G proteins.
Data set [8] deals with T1, Kappa-type opioid receptor. Briefly: Agonist activity at human KOR expressed in CHO cell membranes by [35S]GTPgammaS binding assay relative to U69,593. It counts as functional.
The nature of data set [9]: Therapeutic index, ratio of ED50 for induction of sedation in ICR mouse by spontaneous locomotor activity test to ED50 for antinociceptive activity in ICR mouse by acetic acid abdominal constriction test. The data set is classed as organism-based, Abdomen. The following applies: in vivo, read-out: Ratio ED50.
Data set [10] concerns Mus musculus. Briefly: Antinociceptive activity in ICR mouse assessed as reduction in acetic acid-induced abdominal writhing dosed subcutaneously 15 mins before acetic acid challenge and treated 24 hrs after 10 mg/kg, sc KOR antagonist nor-Binaltorphimin dosing. It counts as functional, organism-based. To be noted: Abdomen.

Delta-type opioid receptor, sequence (P32300 whole entry): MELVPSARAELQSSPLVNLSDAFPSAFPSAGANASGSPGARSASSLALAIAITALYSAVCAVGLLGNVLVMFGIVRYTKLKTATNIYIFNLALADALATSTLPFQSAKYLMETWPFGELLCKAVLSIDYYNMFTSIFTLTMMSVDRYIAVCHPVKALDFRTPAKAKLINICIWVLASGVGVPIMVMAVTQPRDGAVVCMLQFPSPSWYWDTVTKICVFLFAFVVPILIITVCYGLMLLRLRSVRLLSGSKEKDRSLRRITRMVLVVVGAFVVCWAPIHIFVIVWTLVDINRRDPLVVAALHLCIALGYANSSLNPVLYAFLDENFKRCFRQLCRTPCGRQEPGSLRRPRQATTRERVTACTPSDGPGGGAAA
Kappa-type opioid receptor (Mus musculus, UniProt P33534), sequence (P33534 whole entry): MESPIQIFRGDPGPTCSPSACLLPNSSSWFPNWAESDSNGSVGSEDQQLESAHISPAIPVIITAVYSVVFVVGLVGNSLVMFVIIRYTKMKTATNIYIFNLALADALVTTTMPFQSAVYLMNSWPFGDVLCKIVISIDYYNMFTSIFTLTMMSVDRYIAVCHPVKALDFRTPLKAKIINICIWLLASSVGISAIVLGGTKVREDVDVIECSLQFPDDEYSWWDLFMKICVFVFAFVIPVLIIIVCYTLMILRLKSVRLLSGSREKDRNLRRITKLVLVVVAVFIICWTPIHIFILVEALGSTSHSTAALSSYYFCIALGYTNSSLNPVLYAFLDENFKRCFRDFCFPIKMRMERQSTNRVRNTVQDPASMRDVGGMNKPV
Mu-type opioid receptor, sequence (P97266 whole entry): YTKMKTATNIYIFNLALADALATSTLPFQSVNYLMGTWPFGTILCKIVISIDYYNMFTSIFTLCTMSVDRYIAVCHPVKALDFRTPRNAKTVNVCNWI
T1 sequence (P41145 whole entry): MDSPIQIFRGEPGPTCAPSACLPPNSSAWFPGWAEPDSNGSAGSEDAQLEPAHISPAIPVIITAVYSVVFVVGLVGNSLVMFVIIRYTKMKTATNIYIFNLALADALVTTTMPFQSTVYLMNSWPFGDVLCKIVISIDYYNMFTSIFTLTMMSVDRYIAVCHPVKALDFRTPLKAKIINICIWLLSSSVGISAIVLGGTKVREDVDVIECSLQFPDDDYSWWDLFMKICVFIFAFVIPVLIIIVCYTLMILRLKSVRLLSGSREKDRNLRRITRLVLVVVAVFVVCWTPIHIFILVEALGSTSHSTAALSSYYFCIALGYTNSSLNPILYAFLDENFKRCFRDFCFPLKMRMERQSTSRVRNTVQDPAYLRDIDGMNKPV

Broadly, the Ki is the equilibrium dissociation constant of an inhibitor or competing ligand from its target. Low readings indicate higher affinity, high ones lower affinity. `CN(C(=O)CCc1ccccc1)[C@@H]1C[C@@]23CCN(CC4CC4)[C@H]4C=C[C@@H]1C[C@]42Cc1ccc(O)cc13`: the Ki at Mu-type opioid receptor came out at 0.51 nM; in data set [1] it was 3.52 nM; in data set [2] it was 0.47 nM. Moreover, the Ratio Ki amounted to 1.09 in data set [3] and 7.49 in the data set filed under Mus musculus [4].
For the compound `CN(C(=O)Cc1ccccc1)[C@H]1C[C@@]23CCN(CC4CC4)[C@H]4C=C[C@@H]1C[C@]42Cc1ccc(O)cc13`, the Ki stood at 12.2 nM at Mu-type opioid receptor, 4.5 nM in [1] and 1.73 nM in data set [2]. Further, the Ratio Ki stood at 7.05 in data set [3] and 2.6 in the data set filed under Mus musculus [4].
As to `CN(C(=O)CCc1ccccc1)[C@H]1C[C@@]23CCN(CC4CC4)[C@H]4C=C[C@@H]1C[C@]42Cc1ccc(O)cc13`, the inhibition constant Ki on Mu-type opioid receptor worked out at 4.36 nM; in data set [1] it was 10.7 nM; in data set [2] it was 1.86 nM. Besides, the results for the Ratio Ki (in data set [3]; in the data set listed under Mus musculus [4]) were 2.34 and 5.75, respectively.
The corresponding values for `CN(C(=O)Cc1ccccc1)[C@@H]1C[C@@]23CCN(CC4CC4)[C@H]4CCC1C[C@]42Cc1ccc(O)cc13` (single isomer, unassigned) are 0.197 nM, 1.19 nM, 0.136 nM, 1.45 and 8.75.
The like results for `CN(C(=O)Cc1ccccc1)[C@@H]1C[C@@]23CCN(CC4CC4)[C@H]4C=C[C@@H]1C[C@]42Cc1ccc(O)cc13` were, in that order, 0.42 nM, 1.66 nM, 0.24 nM, 1.75 and 6.92.
The like results for `CN(C(=O)c1ccccc1)[C@H]1C[C@@]23CCN(CC4CC4)[C@H]4CCC1C[C@]42Cc1ccc(O)cc13` (single isomer, unassigned) were, in that order, 56 nM, 1.27 nM, 13.8 nM, 4.06 and 0.092.
Turning to `CN(C(=O)Cc1ccccc1)[C@H]1C[C@@]23CCN(CC4CC4)[C@H]4CCC1C[C@]42Cc1ccc(O)cc13` (single isomer, unassigned), the values for the Ki (on Mu-type opioid receptor; in data set [1]; in [2]) were 59.6 nM, 15 nM and 11 nM, respectively. Also, the Ratio Ki is 5.42 in data set [3] and 1.36 in the data set listed under Mus musculus [4].
The like results for `CN(C(=O)c1ccccc1)[C@H]1C[C@@]23CCN(CC4CC4)[C@H]4C=C[C@@H]1C[C@]42Cc1ccc(O)cc13` were, in that order, 47.6 nM, 6.46 nM, 13.1 nM, 3.63 and 0.493.
The corresponding values for `CN(C(=O)/C=C/c1ccoc1)[C@@H]1C[C@@]23CCN(CC4CC4)[C@H]4C=C[C@@H]1C[C@]42Cc1ccc(O)cc13` are 0.57 nM, 3.98 nM, 0.23 nM, 2.48 and 17.3.
For orientation: ED50 means the dose that gives a 50% effect, or the effect in half of the subjects. Take `CN(C(=O)/C=C/c1ccoc1)[C@@H]1CC[C@@]2(O)[C@H]3Cc4ccc(O)c5c4[C@@]2(CCN3CC2CC2)[C@H]1O5.Cl` [NALFURAFINE HYDROCHLORIDE]: the ED50 in the data set with Mus musculus [5] was determined as 0.00622 mg/kg; in the data set filed under Mus musculus [6] it was 0.0344 mg/kg.
Regarding `CN(C(=O)/C=C/c1ccoc1)[C@H]1C[C@@]23CCN(CC4CC4)[C@H]4CC[C@@H]1C[C@]42Cc1ccc(O)cc13`, the inhibition constant (Ki) on Mu-type opioid receptor was 47.9 nM; in [1], 19.1 nM; in data set [2] it was 8.36 nM. Moreover, the Ratio Ki amounted to 5.73 in data set [3] and 2.28 in the data set filed under Mus musculus [4].
On to `CN(C(=O)CCc1ccccc1)[C@@H]1C[C@@]23CCN(CC4CC4)[C@H]4CCC1C[C@]42Cc1ccc(O)cc13` (single isomer, unassigned), for which the Ki at Mu-type opioid receptor is 0.229 nM; in data set [1] it was 1.15 nM; in data set [2] it was 0.113 nM. Also, the Ratio Ki in data set [3] stood at 2.03; in the data set filed under Mus musculus [4], 10.2.
Broadly, the EC50 is the concentration giving half of the maximal effect. A low value points to higher potency in that assay. Broadly, the Emax is the size of the effect at its maximum, as opposed to the concentration needed. With `CN(C(=O)/C=C/c1ccoc1)[C@H]1C[C@@]23CCN(CC4CC4)[C@H]4C=C[C@@H]1C[C@]42Cc1ccc(O)cc13.Cl`, the values for the Ki (at Mu-type opioid receptor; in data set [1]; in data set [2]) were 13.9 nM, 14.2 nM and 0.82 nM, respectively. The Ratio Ki in [3] was 17; in the data set filed under Mus musculus [4], 17.3. In addition, the EC50 in data set [7] came out at 11.8 nM. Moreover, in data set [8], the Emax is 108%. Further, the inhibition entry in the data set on Mus musculus [5] is “Dose-dependent effect”. The ED50 with Mus musculus [5] was 0.589 mg/kg; in the data set filed under Mus musculus [6], 7.74 mg/kg. The selectivity ratio in [9] is 13.1. The inhibition entry with Mus musculus [10] is “inactive”.
Turning to `CN(C(=O)c1ccccc1)[C@@H]1C[C@@]23CCN(CC4CC4)[C@H]4CCC1C[C@]42Cc1ccc(O)cc13` (single isomer, unassigned), the inhibition constant Ki was 0.28 nM at Mu-type opioid receptor, 3.65 nM in data set [1] and 0.543 nM in data set [2]. The Ratio Ki in data set [3] is 0.516; in the data set listed under Mus musculus [4], 6.72.
The like results for `CN(C(=O)/C=C/c1ccoc1)[C@@H]1C[C@@]23CCN(CC4CC4)[C@H]4CC[C@@H]1C[C@]42Cc1ccc(O)cc13` were, in that order, 0.232 nM, 0.182 nM, 0.204 nM, 1.14 and 0.89.
With `CN(C(=O)CCc1ccccc1)[C@H]1C[C@@]23CCN(CC4CC4)[C@H]4CCC1C[C@]42Cc1ccc(O)cc13` (single isomer, unassigned), the Ki at Mu-type opioid receptor amounted to 11.5 nM; in data set [1], 32.4 nM; in data set [2] it was 11.9 nM. Moreover, the results for the Ratio Ki (in data set [3]; in the data set listed under Mus musculus [4]) were 0.966 and 2.72, respectively.
The corresponding values for `CN(C(=O)c1ccccc1)[C@@H]1C[C@@]23CCN(CC4CC4)[C@H]4C=C[C@@H]1C[C@]42Cc1ccc(O)cc13` are 2.7 nM, 2.23 nM, 4.46 nM, 0.61 and 0.5.
